# Test results: patent US4576952A, “Pyrazolopyridine derivatives and their use as anti-inflammatory and/or anti-allergic agents” (Beecham Group p.l.c., priority 1984, dated 1986)
# What was measured:
# cantharidin mouse ear = experiment: Mouse Cantharidin Screen (topical anti-inflammatory activity, mouse ear); format: in vivo; conditions: Mouse Cantharidin Data (24 h)
# Method: Compounds were tested for topical anti-inflammatory activity in a cantharidin mouse ear screen, modified from Swingle et al [Swingle, K. F., Reiter, M. J. and Schwartzmiller, D. H., Arch. Int. Pharmacodyn., (1981), 254, 168-176].
# 25 μg cantharidin (in 10 μl THF/MeOH) was applied to both ears. Compound, in the same solvent, was applied at the same time, to the left ear only. Ears were weighed 24 h after cantharidin application. Percentage inhibition of the acute inflammatory swelling refers to the increase in weight of left ears (cantharidin plus compound) compared with solvent-treated negative controls, as a proportion of the increase in weight of right ears (cantharidin alone) over similar controls.
# [1] = system: mouse sensitised to oxazolone; experiment: Mouse Oxazolone Screen (topical anti-inflammatory activity); format: in vivo; conditions: ear, compound 1 h before oxazolone challenge, ear weights 24 h later, r^2 =0.96
# Method: Compounds were tested for topical anti-inflammatory activity in a screen using the mouse sensitised to oxazolone, by a method modified from that of Dietrich and Hess [Dietrich, F. M., and Hess, R., Int. Arch. Allergy, (1970), 38, 246-259].
# Mice were sensitised with oxazolone (2 mg in 20 μl ethanol) on a shaved area of the abdomen. Five days later, the animals received 10 μl THF/MeOH (1:1 v/v) on the right ear, and the test compound in the same solvent on the left ear. One hour later, the animals were challenged with 100 μg oxazolone in 10 μl acetone on each ear. Ear weights were measured 24 h later. Percentage inhibition of the inflammatory swelling refers to the increase in weight of left ears (oxazolone plus compound) compared with solvent-treated negative controls, as a proportion of the increase in weight of right ears (oxazolone alone) over similar controls.
# 5-Lipoxygenase = experiment: RBL-1 5-Lipoxygenase Screen; format: biochemical; conditions: 20 μM; 10,000 g supernatant from RBL-1 cells, 29° C.
# Method: 5-Lipoxygenase enzyme was prepared as a 10,000 g supernatant from RBL-1 cells by the method of Jakschik [Jakschik, B. A., Sun, F. F., Lee, L. M. and Steinhoff, M. M., 1980, Biochem. Biophys. Res. Comm. 95, 103]. The 10,000 g supernatant was diluted with homogenization buffer to the equivalent of 1.5-2.5×10^7 cells ml^-1 and made 2 mM with respect to CaCl2. Aliquots of 0.5 ml were then dispensed into tubes, and incubated at 29° C. with 5 γl ethanol or compound in ethanol at the desired concentration for 2 min. Then [1-^14 C] arachidonic acid was added in buffer to give a final concentration of 6.3 μm and 0.2 μCi per incubation, and the reaction continued at 29° C. for 2 min. The reaction was terminated by adding 1 ml of acetone and cooling on ice, 0.5 ml of ice-cold saline and 10 μl of 2N formic acid were added, and the mixture was extracted with 2×2 ml of chloroform. The extract was stored under N2 at -20° C. until analysis by chromatography. Activity was measured as the percentage of total radioactivity found in 5-HETE and 5,12-diHETE, and inhibition calculated as the decrease in formation of the sum of these two species in compound-treated incubates relative to control incubates.
# mice = conditions: in mice; J. Heterocycl. Chem. 1971, 8(6), 1035-7; cited from earlier work
smiles,measurement,setting,value
"Cc1cc(Nc2ccc(C#N)cc2)c2[nH]ncc2n1 [Example 1, 7-(4-Cyanoanilino)-5-methyl-1H-pyrazolo[4,3-b]pyridine]",% Inhibition,cantharidin mouse ear; 300 μg/ear,29%
"Cc1cc(Nc2ccc(O)cc2)c2[nH]ncc2n1 [Example 4, 7-(4-Hydroxyanilino)-5-methyl-1H-pyrazolo[4,3-b]pyridine]",ED50,[1],240 μg/ear
same,"inhibition (decrease in formation of 5-HETE and 5,12-diHETE)",5-Lipoxygenase,66%
same,% Inhibition,cantharidin mouse ear; 200 μg/ear,71%
"Cc1cc(Nc2cccc(O)c2)c2[nH]ncc2n1 [Example 5, 7-(3-Hydroxyanilino)-5-methyl-1H-pyrazolo[4.3-b]pyridine]",% Inhibition,cantharidin mouse ear; 500 μg/ear,49%
"Cc1cc(Nc2cccc(O)c2)c2c(cnn2C)n1 [Example 8, 1,5-Dimethyl-7-(3-hydroxyanilino)-1H-pyrazolo[4,3-b]pyridine]",% Inhibition,cantharidin mouse ear; 278 μg/ear,31%
CC(=O)N(C(C)=O)c1cc(C)nc2c(C)n[nH]c12 [compound wherein R is NAc2],CNS antidepressant activity,mice,CNS antidepressant activity
